Test results reported in patent publication US10022527B2, “Immersion device” (BSN medical GmbH, priority 2013, dated 2018).

Tests used:
[1] = Generation of oxidation products (NO2) in the NO-containing solution; format: physicochemical; conditions: same solution
Experimental: (§1) The NO-generating unit contained tap water, buffer salts (8 g/l NaCl+0.2 g/l KCl+1.424 g/l Na2HPO4+0.2 g/l KH2PO4, pH=7.0), 1.45 mM NaNO2 and 10 mM Na ascorbate.
(§2) UV radiation of this solution containing nitrite yielded a solution that contained approximately 150 μM NO. The stability of the generated NO and the occurrence of oxidation products were analyzed on the basis of this solution. Moreover, the effect in terms of perfusion and erythema formation was tested within the scope of its use as a foot bath.
This solution first underwent a stability test, that is to say, it was ascertained how the content of NO changes over a time span of 20 minutes. […] During the entire procedure, the helium-gas mixtures escaping from the flask were conveyed directly into an NO analysis unit (Chemiluminescence Detector—CLD 822 Sr made by Eco Physics of Duernten, Switzerland) which detected and recorded the NO amounts in ppm (parts per million) that were contained in the gas mixture (in this context, also see Opländer et al. 2010—Nitric Oxide—Bio. Ch. 23: 275-283).
Using the solution described above, parallel to the above-mentioned NO detection, the amount of nitrogen dioxide radicals, as the most important oxidation product of NO, was detected during the same measurement. […]

[2] = cited from earlier work
[3] = Stability test of the NO content of the UV-generated NO-containing buffer solution (chemiluminescence detection); format: physicochemical; conditions: approximately 150 μM NO in buffered tap water pH 7.0 with 1.45 mM NaNO2 and 10 mM Na ascorbate; over a time span of 20 minutes; not statistically significant
Experimental: as §1, §2
This solution first underwent a stability test, that is to say, it was ascertained how the content of NO changes over a time span of 20 minutes. Every two minutes an aliquot of 10 ml of the bathing solution was pipetted into a flask (volume capacity of 175 ml) through which helium gas was flowing (100 ml/min) and which had already been filled with 40 ml of a PBS solution (pH of 7.4). During the entire procedure, the helium-gas mixtures escaping from the flask were conveyed directly into an NO analysis unit (Chemiluminescence Detector—CLD 822 Sr made by Eco Physics of Duernten, Switzerland) which detected and recorded the NO amounts in ppm (parts per million) that were contained in the gas mixture (in this context, also see Opländer et al. 2010—Nitric Oxide—Bio. Ch. 23: 275-283). […]

[4] = cited from earlier work; remark: listed apart in the source

## [N]=O [NO, nitric oxide]
[1]; occurred only after 10 minutes
  concentration of NO2 (oxidation product of NO): ~1.5 ppm
[1]; up to the maximum time value of 20 minutes
  measured NO2 values compared with the initial values: not significantly higher than the initial values
[2]
  maximum solubility of NO in aqueous solutions: approximately 2 mM
[3]
  drop of NO content: about 10%
[4]; at 37° C.
  diffusion coefficient of NO relative to that of oxygen or carbon monoxide: approximately 1.4
[4]; calculated on the basis of the diffusion coefficient
  diffusion path that can be achieved in the tissues: 500 μm
